Measured values from the supplement of paper PMC10307832.

Key:
Test in all cases: relative viability (nuclei count vs DMSO), 5 days (fraction); higher = more cells survive
VE-821 + Pictilisib = compound: CS(=O)(=O)c1ccc(-c2cnc(N)c(C(=O)Nc3ccccc3)n2)cc1 [VE-821] + CS(=O)(=O)N1CCN(Cc2cc3nc(-c4cccc5[nH]ncc45)nc(N4CCOCC4)c3s2)CC1 [Pictilisib] (partner 1 µM)
Summary of the method: (§1)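 Values are medians from duplicate plates. Each reflects relative viability, defined as the nuclei count of treated wells over that of vehicle wells. Lung cancer cell lines in 1536-well plates were pin-tool dosed one day after seeding with one drug alone or with a fixed anchor-drug dose plus five library-drug doses (not always all listed) in √10 steps, then fixed, stained and imaged at 4× after 5 days.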

Vismodegib + Lapatinib = compound: CS(=O)(=O)c1ccc(C(=O)Nc2ccc(Cl)c(-c3ccccn3)c2)c(Cl)c1 [Vismodegib] + CS(=O)(=O)CCNCc1ccc(-c2ccc3ncnc(Nc4ccc(OCc5cccc(F)c5)c(Cl)c4)c3c2)o1 [Lapatinib] (partner 2 µM)
Summary of the method: as §1

Ruxolitinib + Linsitinib = compound: N#CC[C@H](C1CCCC1)n1cc(-c2ncnc3[nH]ccc23)cn1 [Ruxolitinib] + C[C@]1(O)C[C@@H](c2nc(-c3ccc4ccc(-c5ccccc5)nc4c3)c3c(N)nccn32)C1 [Linsitinib] (partner 1 µM)
Summary of the method: as §1

Ruxolitinib + Navitoclax = compound: N#CC[C@H](C1CCCC1)n1cc(-c2ncnc3[nH]ccc23)cn1 [Ruxolitinib] + CC1(C)CCC(c2ccc(Cl)cc2)=C(CN2CCN(c3ccc(C(=O)NS(=O)(=O)c4ccc(N[C@H](CCN5CCOCC5)CSc5ccccc5)c(S(=O)(=O)C(F)(F)F)c4)cc3)CC2)C1 [Navitoclax] (partner 0.5 µM)
Summary of the method: as §1

Row | Cell Line | relative viability (VE-821 + Pictilisib; first compound 0.08 µM) | relative viability (VE-821 + Pictilisib; first compound 0.253 µM) | relative viability (VE-821 + Pictilisib; first compound 0.8 µM) | relative viability (VE-821 + Pictilisib; first compound 2.53 µM) | relative viability (VE-821 + Pictilisib; first compound 8 µM) | relative viability (Vismodegib + Lapatinib; first compound 0.08 µM) | relative viability (Vismodegib + Lapatinib; first compound 0.253 µM) | relative viability (Vismodegib + Lapatinib; first compound 0.8 µM) | relative viability (Vismodegib + Lapatinib; first compound 2.53 µM) | relative viability (Vismodegib + Lapatinib; first compound 8 µM) | relative viability (Ruxolitinib + Linsitinib; first compound 0.08 µM) | relative viability (Ruxolitinib + Linsitinib; first compound 0.253 µM) | relative viability (Ruxolitinib + Linsitinib; first compound 0.8 µM) | relative viability (Ruxolitinib + Linsitinib; first compound 2.53 µM) | relative viability (Ruxolitinib + Linsitinib; first compound 8 µM) | relative viability (Ruxolitinib + Navitoclax; first compound 0.08 µM) | relative viability (Ruxolitinib + Navitoclax; first compound 0.253 µM) | relative viability (Ruxolitinib + Navitoclax; first compound 0.8 µM) | relative viability (Ruxolitinib + Navitoclax; first compound 2.53 µM) | relative viability (Ruxolitinib + Navitoclax; first compound 8 µM)
1 | LOU-NH91 | 0.527 | 0.506 | 0.496 | 0.524 | 0.525 | 0.757 | 0.798 | 0.663 | 0.745 | 0.841 | 0.663 | 0.895 | 1.14 | 0.895 | 0.872 | 0.487 | 0.688 | 0.909 | 0.585 | 0.688
2 | NCI-H1975 | 0.312 | 0.216 | 0.298 | 0.267 | 0.26 | 0.848 | 0.819 | 0.966 | 0.803 | 0.946 | 1.03 | 1.03 | 1.05 | 0.71 | 0.587 | 1.13 | 1.04 | 1.15 | 0.698 | 0.591
3 | NCI-H727 | 0.418 | 0.314 | 0.232 | 0.458 | 0.227 | 0.814 | 0.653 | 0.585 | 0.826 | 0.874 | 0.283 | 0.272 | 0.237 | 0.228 | 0.427 | 0.472 | 0.426 | 0.627 | 0.595 | 0.366
4 | CAL-12T | 0.479 | 0.394 | 0.448 | 0.427 | 0.314 |  | 0.723 | 0.578 | 0.562 | 0.75 | 0.819 | 0.744 | 0.853 | 0.614 | 0.7 | 1.1 | 1.23 | 1.14 | 1.15 | 1.07
5 | NCI-H1944 | 0.364 | 0.325 | 0.348 | 0.339 | 0.294 | 0.925 | 0.746 | 0.801 | 0.79 | 0.972 | 1.23 | 1.12 | 1.28 | 1.15 | 1.21 | 0.998 | 0.959 | 1.03 | 0.887 | 0.955
6 | RERF-LC-KJ | 0.496 | 0.498 | 0.463 | 0.547 | 0.482 | 0.902 | 0.848 | 0.762 | 0.817 | 0.826 | 0.883 | 0.812 | 0.877 | 0.904 | 0.634 | 1.05 | 0.963 | 1.59 | 1.15 | 0.657
7 | NCI-H838 | 0.436 | 0.359 | 0.496 | 0.561 | 0.557 | 0.888 | 1.01 | 0.987 | 0.99 | 1.09 | 1.03 | 0.903 | 0.87 | 0.534 | 0.36 | 1.08 | 1.06 | 1.04 | 0.641 | 0.406
